ChEMBL document CHEMBL6078629, “Targeting Protein Kinase, Membrane-Associated Tyrosine/Threonine 1 (PKMYT1) for Precision Cancer Therapy: From Discovery to Clinical Trial” (J Med Chem, 2024)
One block for each compound: values may come before it.

What was measured:
[1] = tested on: HCC1569; assay: Antiproliferative activity against human HCC1569 cells assessed as reduction in cell viability incubated for 48 hrs by MTT assay; assay type: functional, cell-based; details: HCC1569, 48 h
[2] = target: T1, Membrane-associated tyrosine- and threonine-specific cdc2-inhibitory kinase (Homo sapiens, UniProt Q99640); assay: Inhibition of PKMYT1 (unknown origin)
T1 sequence (Q99640 whole entry): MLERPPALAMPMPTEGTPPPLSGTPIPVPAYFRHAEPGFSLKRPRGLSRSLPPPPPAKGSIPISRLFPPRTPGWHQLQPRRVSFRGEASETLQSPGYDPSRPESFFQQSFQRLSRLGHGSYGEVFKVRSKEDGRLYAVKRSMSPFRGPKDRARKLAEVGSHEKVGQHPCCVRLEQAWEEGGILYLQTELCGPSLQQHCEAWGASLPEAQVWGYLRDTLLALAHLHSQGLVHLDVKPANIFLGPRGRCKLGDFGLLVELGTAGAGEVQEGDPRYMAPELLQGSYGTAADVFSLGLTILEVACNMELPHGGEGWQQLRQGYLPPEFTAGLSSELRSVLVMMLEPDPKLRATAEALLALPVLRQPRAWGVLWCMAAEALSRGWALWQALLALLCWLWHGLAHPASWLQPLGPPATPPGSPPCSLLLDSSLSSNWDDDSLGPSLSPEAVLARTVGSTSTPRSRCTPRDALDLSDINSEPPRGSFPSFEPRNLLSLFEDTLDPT

[3] = target: T2, Wee1-like protein kinase (Homo sapiens, UniProt P30291); assay: Inhibition of WEE1 (unknown origin)
[4] = tested on: MIA PaCa-2; assay: Antiproliferative activity against human MIA PaCa-2 cells assessed as reduction in cell viability incubated for 48 hrs by MTT assay; assay type: functional, cell-based; details: MIA PaCa-2, 48 h
[5] = Half life in […] at 2 mg/kg, iv; assay type: ADME, organism-based; details: in vivo
[6] = Clearance in CD-1 mouse at 2 mg/kg, iv by LC-MS/MS analysis; assay type: ADME, organism-based; details: in vivo
[7] = target: T1, Membrane-associated tyrosine- and threonine-specific cdc2-inhibitory kinase; assay: Inhibition of PKMYT1 (unknown origin) by TR-FRET analysis
[8] = target: T1, Membrane-associated tyrosine- and threonine-specific cdc2-inhibitory kinase; assay: Binding affinity to PKMYT1 (unknown origin) assessed as dissociation constant
[9] = target: T2, Wee1-like protein kinase; assay: Binding affinity to WEE1 (unknown origin) assessed as dissociation constant
[10] = target: T1, Membrane-associated tyrosine- and threonine-specific cdc2-inhibitory kinase; assay: Inhibition of PKMYT1 (unknown origin) extracted from insect cells by TR-FRET analysis; assay type: cell-free, Insect cell

T2 sequence (P30291 whole entry): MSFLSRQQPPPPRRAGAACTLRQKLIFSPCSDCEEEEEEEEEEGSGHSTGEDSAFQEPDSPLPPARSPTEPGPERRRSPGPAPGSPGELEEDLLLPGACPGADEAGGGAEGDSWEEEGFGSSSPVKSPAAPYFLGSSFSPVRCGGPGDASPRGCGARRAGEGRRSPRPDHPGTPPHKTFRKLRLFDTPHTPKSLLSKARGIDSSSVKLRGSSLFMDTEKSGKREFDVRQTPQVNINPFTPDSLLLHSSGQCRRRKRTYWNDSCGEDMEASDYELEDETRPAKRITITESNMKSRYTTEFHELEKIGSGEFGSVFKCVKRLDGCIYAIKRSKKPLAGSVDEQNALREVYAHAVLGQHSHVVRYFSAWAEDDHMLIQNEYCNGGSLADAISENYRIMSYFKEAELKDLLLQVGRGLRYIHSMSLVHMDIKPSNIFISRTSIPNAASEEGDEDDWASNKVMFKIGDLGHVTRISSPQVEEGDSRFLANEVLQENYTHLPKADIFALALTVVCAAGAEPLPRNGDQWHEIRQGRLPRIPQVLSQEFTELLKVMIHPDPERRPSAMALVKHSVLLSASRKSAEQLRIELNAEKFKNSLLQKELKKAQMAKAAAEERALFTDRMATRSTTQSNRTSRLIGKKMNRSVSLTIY

IC50 [1]: 42 nM
SMILES: Cc1ccc(O)c(C)c1-n1c(N)c2c3c(ncnc31)-c1ccccc1NC2=O

IC50 [2]: < 100 nM
IC50 [1]: < 5 nM
SMILES: Cc1cc2c3c(N)ncnc3n(-c3c(C)ccc(O)c3C)c2nc1C

IC50 [2]: ≤ 10 nM
IC50 [3]: 500 nM
SMILES: Cc1ccc(O)c(C)c1-n1nc(-c2nccs2)c(C(N)=O)c1N

IC50 [2]: ≤ 200 nM
IC50 [4]: 4320 nM
half-life [5]: 0.56 h
clearance [6]: 94.4 mL/min/kg
SMILES: Cc1cc2c(C(N)=O)c(N)n(-c3c(C)c(O)cc(F)c3C)c2nc1C

IC50 [2]: < 50 nM
SMILES: COc1ccnc2c(-c3cccc(O)c3C)c(N)c(C(N)=O)cc12

IC50 [1]: 22 nM
SMILES: Cc1nc2c3c(c(N)n(-c4c(C)ccc(O)c4C)c3n1)C(=O)Nc1ccccc1-2

IC50 [7]: ≤ 10 nM
SMILES: Cc1nc2c3c(c(N)n(-c4c(C)ccc(O)c4C)c3n1)C(=O)NCC2

IC50 [2]: < 50 nM
SMILES: COc1ccnc2c(-c3c(C)ccc(O)c3C)c(N)c(C(N)=O)cc12

IC50 [2]: ≤ 10 nM
SMILES: Cc1ccc(-c2cc3c(Cl)c(-c4c(C)ccc(O)c4C)cnc3[nH]2)cn1

IC50 [2]: < 100 nM
IC50 [1]: < 5 nM
SMILES: Cc1ccc(O)c(C)c1-n1c2ncc(N3CCOCC3)nc2c2c(N)ncnc21

IC50 [2]: < 50 nM
SMILES: Cc1c(O)cccc1-c1c(N)c(C(N)=O)nc2cccc(C#N)c12

IC50 [2]: < 50 nM
SMILES: Cc1ccc(O)c(C)c1-c1c(N)c(C(N)=O)nc2nccnc12

IC50 [2]: ≤ 10 nM
SMILES: Cc1ncc(-c2[nH]c3ncc(-c4c(C)ccc(O)c4C)nc3c2Cl)cn1

IC50 [7]: 7.2 nM
SMILES: Cc1cc(Nc2ncc3cc(-c4c(Cl)cccc4Cl)c(=O)n(C)c3n2)ccc1F

IC50 [2]: < 10 nM
SMILES: CC1=NN2C(C=C1C1CC1)C(C(N)=O)=C(N)C2c1c(C)ccc(O)c1C (stereo not given)

Kd [8]: ≤ 10 nM
Kd [9]: > 500 nM
SMILES: COc1ccc(Nc2ncc3cc(-c4c(C)ccc(O)c4C)c(=O)n(C)c3n2)nc1

Kd [8]: ≤ 10 nM
Kd [9]: > 500 nM
SMILES: C[C@@H](O)CC[C@H](C)Oc1ccc(Nc2ncc3cc(-c4c(Cl)cccc4Cl)c(=O)n(C)c3n2)nn1

IC50 [1]: 8.6 nM
SMILES: Cc1ccc(O)c(C)c1-n1c(N)c2c3c(ncnc31)C=C(c1cnn(C)c1)NC2=O

IC50 [2]: < 10 nM
SMILES: CC1=CC2C(C(N)=O)=C(N)C(c3c(C)ccc(O)c3C)N2N=C1 (stereo not given)

IC50 [2]: < 100 nM
SMILES: CSc1ncc2c(C(N)=O)c(N)n(-c3c(C)ccc(O)c3C)c2n1

IC50 [2]: 500 nM
SMILES: Cc1ccc(O)c(C)c1-c1cnc2[nH]c(-c3ccc(N4CCN(C)CC4)nc3C)nc2c1

IC50 [2]: < 50 nM
SMILES: Cc1c(O)cccc1-c1c(N)c(C(N)=O)nc2cccnc12

IC50 [2]: < 50 nM
SMILES: Cc1c(O)cccc1-c1c(N)c(C(N)=O)cc2nccc(C#N)c12

IC50 [2]: < 20 nM
SMILES: Cc1ccc(O)c(C)c1-n1c(N)c(C(N)=O)c2cc(NC(N)=O)cnc21

Kd [8]: ≤ 10 nM
Kd [9]: > 500 nM
SMILES: CN(C)C(=O)NCc1cc(Nc2ncc3cc(-c4c(Cl)cccc4Cl)c(=O)n(C)c3n2)nnc1OCCN1CCS(=O)(=O)CC1

IC50 [7]: 1.5 nM
SMILES: Cc1ccc(O)c(C)c1-n1c(N)c(C(N)=O)c2c(=O)n(CF)ccc21

IC50 [7]: 10 nM
IC50 [3]: > 10000 nM
SMILES: Cc1ccc(O)c(C)c1-n1c(N)c2c3c(c(C)ncc31)CCNC2=O

IC50 [2]: < 50 nM
SMILES: Cc1ccc(O)c(C)c1-c1c(N)c(C(N)=O)nc2cccnc12

IC50 [10]: 7200 nM
SMILES: COc1cc2ncnc(Nc3cccc(Cl)c3)c2cc1OC [TYRPHOSTIN AG-1478]

Kd [8]: ≤ 10 nM
Kd [9]: > 500 nM
SMILES: CCn1ccc(Oc2ccc(Nc3ncc4cc(-c5c(Cl)cccc5Cl)c(=O)n(C)c4n3)nc2)n1

IC50 [2]: < 10 nM
SMILES: Cc1ccc(O)c(C)c1C1C(N)=C(C(N)=O)C2C=C(C(C)C)C=NN21 (stereo not given)

IC50 [2]: < 10 nM
SMILES: CC1=CC2C(C(N)=O)=C(N)C(c3c(C)ccc(O)c3C)N2N=C1C (stereo not given)

IC50 [4]: 9220 nM
half-life [5]: 3.32 h
clearance [6]: 46.5 mL/min/kg
SMILES: Cc1cc2c(C(N)=O)c(N)n(-c3c(C)ccc(O)c3C)c2nc1C [LUNRESERTIB]

Kd [8]: ≤ 10 nM
Kd [9]: > 500 nM
SMILES: Cc1ccc(O)c(C)c1-c1cc2cnc(Nc3ccccn3)nc2n(C)c1=O

IC50 [10]: 2900 nM
SMILES: CCOc1cc2ncc(C#N)c(Nc3ccc(F)c(Cl)c3)c2cc1NC(=O)/C=C\CN(C)C

IC50 [7]: ≤ 10 nM
SMILES: Cc1ccc(O)c(C)c1-n1c(N)c2c3c(c(C)cnc31)CCNC2=O
